Source: publication PMC5668376, “Stochastic palmitoylation of accessible cysteines in membrane proteins revealed by native mass spectrometry” (Nature Communications, 2017)

Molecular target: T1, bacteriorhodopsin (Halobacterium salinarum, UniProt P02945)
T1 construct: gene bop; synthetic gene (GeneArt), start codon from vector, C-terminal triple StrepII tag, transiently expressed retinal-free in HEK293-EBNA1, purified in DDM; cysteine-free parent protein
T1 sequence (P02945 14-262): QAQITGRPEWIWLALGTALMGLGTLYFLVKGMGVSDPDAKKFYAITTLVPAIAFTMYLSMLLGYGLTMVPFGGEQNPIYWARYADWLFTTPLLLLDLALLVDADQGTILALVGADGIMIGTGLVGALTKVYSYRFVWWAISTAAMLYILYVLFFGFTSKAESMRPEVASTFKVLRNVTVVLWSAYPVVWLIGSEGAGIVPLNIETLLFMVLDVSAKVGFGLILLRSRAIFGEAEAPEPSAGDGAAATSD
Test: native mass spectrometry of purified protein
Type: binding
Conditions: retinal added during purification; DDM micelles; 150 mM ammonium acetate pH 7.5; isomer not stated

How did the “native mass spectrometry of purified protein” value turn out when CC1=C(/C=C/C(C)=C/C=C/C(C)=C/C=O)C(C)(C)CCC1 [retinal] was run?
Its value is “Upon addition of retinal during purification, bacteriorhodopsin mass spectra indicated peaks corresponding to the mass”.
